Reference: US20060035317A1, “Effect of treatment with 4,5-dihydroxy-2-cyclopenten-1-one (dhcp) on gene expression and quorum-sensing in bacteria” (priority 2002, published 2006)
Where “and” joins values, the source holds several entries; their conditions need not be identical. Identical values can stand only once. Like-named read-outs stand apart in the source and are kept apart here.

How the values were obtained:
[1] = tested on: E. coli wild-type strain JM83 (gene expression); test: DNA microarray analysis of mRNA levels in DHCP-treated vs control cells; type: cell-based; conditions: DHCP 250 μM, 8 h
Protocol: E. coli wild-type strain JM83 [F^− araΔ(lac-proAB) rpsL(str^r)] (Yanisch-Perron et al., 1985) was grown in Luria broth (LB). V. harveyi strains BB152 and BB170 were a gift from Dr. Bonnie Bassler (Princeton University). These strains were grown in AB medium as described previously (Surette et al., 1999).
E. coli cells grown overnight in LB medium were diluted into fresh LB medium. After the growth reached a Klett unit of 50, DHCP was added (250 μM) and growth was further monitored. After growth reached a Klett unit of 90-100, it was diluted 10-fold into a medium containing the same concentration of DHCP as described previously (Phadtare et al., 2001). The cells were harvested after a total of 8 h of incubation with DHCP. […] The total RNA was extracted by the hot phenol method described previously (Sarmientos et al., 1983). It was further purified by RNeasy Minikit (Qiagen) and was then treated with DNase I followed by phenol-chloroform treatment and ethanol precipitation. It was quantified by measuring absorbance at 260 nm. The purity of RNA was confirmed by agarose gel electrophoresis.
The mRNAs were labeled with Cy3-dUTP and Cy5-dUTP (Amersham Pharmacia). Random Hexamer pd(N)6 (Amersham Pharmacia) was used as a primer and the IntelliGene E. coli CHIP Version 1 (Takara Shuzo, Co. Ltd., Japan) the DNA microarray was used. This represents the entire ORF of E. coli K-12 W3110.
The cell densities of the control (untreated) and the DHCP-treated cells used were the same; thus, the changes seen in the microarray were not substantially influenced by the difference in cell densities. RNAs isolated from the respective cells were used to generate probes for hybridization of DNA arrays and the data were quantified as described in the Materials and Methods section of this Example. Calculation of the log expression ratios of the corresponding spots allowed pair-wise comparisons of the relative transcript levels for each of the E. coli genes under the two growth conditions. Only those genes whose expression levels differed by log ratio of at least four were considered. In some cases, genes belonging to same operon or category were considered even if the log ratios differed by the factor of only three or little less than three. Log ratios above zero value indicate induction and below zero value indicate repression by DHCP treatment. […] The results of both methods are in agreement with each other.

[2] = tested on: AI-2 activity, V. harveyi reporter strain BB170; conditions: Schauder et al., 2001; cited from earlier work
E. coli JM83 = conditions: DHCP 250 μM, Phadtare et al., 2001, cited from earlier work

O=C1C=CC(O)C1O (centres unmarked) [DHCP, 4,5-dihydroxy-2-cyclopenten-1-one]
Increase of mRNA levels ([1]; Cys regulon genes cysA, cysD, cysH, cysI, cysJ, cysk, cysM, cysN, cysP, cysQ, cysU, cysW): 3-20 times
Ratio (DHCP-treated/control) ([1]; gene CysH (Adenylsulphate reductase)): 6.50
Ratio (DHCP-treated/control) ([1]; gene CysI (Sulfite reductase(NADPH) alpha subunit)): 7.30
Ratio (DHCP-treated/control) ([1]; gene CysJ (Sulfite reductase(NADPH) beta subunit)): 4.70
Ratio (DHCP-treated/control) ([1]; gene CysK (Cysteine synthase)): 20
Ratio (DHCP-treated/control) ([1]; gene CysM (O-acetylserine (thiol)-lyase B)): 3.00
Ratio (DHCP-treated/control) ([1]; gene CysN (Sulfate adenylyltransferase)): 5.00
Ratio (DHCP-treated/control) ([1]; gene CysP (Thiosulfate-binding protein CysP precursor)): 3.55
Ratio (DHCP-treated/control) ([1]; gene CysQ (Ammonium transport protein CysQ)): 3.28
Ratio (DHCP-treated/control) ([1]; gene CysW (Sulfate/thiosulfate transport protein CysW)): 15.00
Ratio (DHCP-treated/control) ([1]; gene EntA (2,3-dihydro-2,3-dihydroxybenzoate)): 0.44
Ratio (DHCP-treated/control) ([1]; gene EntB (Isochorismatase)): 0.23
Ratio (DHCP-treated/control) ([1]; gene EntC (Isochorismate synthase)): 0.45
Ratio (DHCP-treated/control) ([1]; gene EntE (Enterochelin synthetase)): 0.32
Ratio (DHCP-treated/control) ([1]; gene Fbp (Fructose-1,6-biphosphatase)): 4.00
Ratio (DHCP-treated/control) ([1]; gene FruB (PTS system)): 0.12
Ratio (DHCP-treated/control) ([1]; gene FruK (I-phosphofructokinase)): 0.03
Ratio (DHCP-treated/control) ([1]; gene GalM (Aldose 1-epimerase)): 4.00
Ratio (DHCP-treated/control) ([1]; gene Gale (UDP-glucose 4-epimerase)): 4.60
Ratio (DHCP-treated/control) ([1]; gene MarA (Multiple antibiotic resistance protein MarA)): 5
Ratio (DHCP-treated/control) ([1]; gene MdaB (Modulator of drug activity)): 10
Ratio (DHCP-treated/control) ([1]; gene TalA (Patatire transaldolase)): 7.6
Ratio (DHCP-treated/control) ([1]; gene TehB (Tellurite resistance protein TehB)): 5
Ratio (DHCP-treated/control) ([1]; gene YidS (unknown function or class)): 4
Ratio (DHCP-treated/control) ([1]; gene ZipA (Cell division protein)): 4.50
Decrease of mRNA level ([1]; gene ackA): 3.6 times
Ratio (DHCP-treated/control) ([1]; gene ansP (L-asparagine permease)): 0.29
Ratio (DHCP-treated/control) ([1]; gene atoE (Short-chain fatty acids)): 0.17
Ratio (DHCP-treated/control) ([1]; gene atzN (Zinc-transporting ATPase)): 11 and 11.30
Ratio (DHCP-treated/control) ([1]; gene cheA (Chemotaxis protein CheA)): 0.25
Ratio (DHCP-treated/control) ([1]; gene cpxP (Periplasmic protein precursor)): 4.95
Ratio (DHCP-treated/control) ([1]; gene creD (Inner-membrane protein CreD)): 47
Ratio (DHCP-treated/control) ([1]; gene cysU (Sulfate transport system permease)): 4.99
Ratio (DHCP-treated/control) ([1]; gene czcD (Cation efflux protein CzcD)): 3.60
Ratio (DHCP-treated/control) ([1]; gene dps (DNA-binding protein Dps)): 13
Ratio (DHCP-treated/control) ([1]; gene fadL (Long-chain fatty acid transport protein)): 0.10
Ratio (DHCP-treated/control) ([1]; gene fecA (Iron(III) dicitrate transport protein FecA)): 0.16
Ratio (DHCP-treated/control) ([1]; gene fecB (Iron(III) dicitrate-binding protein)): 0.15
Ratio (DHCP-treated/control) ([1]; gene fecC (FecC protein)): 0.21
Ratio (DHCP-treated/control) ([1]; gene fecD (Iron(III) dicitrate transport system protein)): 0.15
Ratio (DHCP-treated/control) ([1]; gene fecE (Iron(III) dicitrate transport protein)): 0.11
Ratio (DHCP-treated/control) ([1]; gene fepA (Ferrienterochelin receptor precursor)): 0.25
Ratio (DHCP-treated/control) ([1]; gene fepC (Ferric enterobactin transport protein FepC)): 0.40
Inhibition of mRNA level ([1]; gene fruB): 8 times
Inhibition of mRNA level ([1]; gene fruK): 33 times
Ratio (DHCP-treated/control) ([1]; gene glf (UDP-galactopyranose mutase)): 0.20
Ratio (DHCP-treated/control) ([1]; gene hdeB (10k-1 protein precursor)): 6.00
Ratio (DHCP-treated/control) ([1]; gene katG (Catalase HPI)): 9.00
Ratio (DHCP-treated/control) ([1]; gene lysP (Lysin-specific permease)): 0.16
Ratio (DHCP-treated/control) ([1]; gene motA (Chemotaxis protein MotA)): 0.18
Ratio (DHCP-treated/control) ([1]; gene motB (Chemotaxis protein MotB)): 0.40
Ratio (DHCP-treated/control) ([1]; gene msyB (Membrane protein)): 4.25
Ratio (DHCP-treated/control) ([1]; gene nmpC (Outer membrane porin protein precursor)): 0.01
Ratio (DHCP-treated/control) ([1]; gene ompA (Outer membrane protein a precursor)): 0.23
Ratio (DHCP-treated/control) ([1]; gene ompC (Outer membrane protein c precursor)): 0.20
Ratio (DHCP-treated/control) ([1]; gene ompF (Outer membrane protein f precursor)): 0.06
Ratio (DHCP-treated/control) ([1]; gene ompT (ProteinaseVII)): 0.11
Ratio (DHCP-treated/control) ([1]; gene osmY (Hyperosmotically induced protein)): 12.00
Ratio (DHCP-treated/control) ([1]; gene otsA (Tehalose-6-phosphate synthase)): 11.00
Ratio (DHCP-treated/control) ([1]; gene pheP (phenylalanine transport protein pheP)): 0.13
Ratio (DHCP-treated/control) ([1]; gene plsX (PlsX protein)): 0.28
Ratio (DHCP-treated/control) ([1]; gene potA (Spermidine/putrescine transport protein A)): 0.13
Ratio (DHCP-treated/control) ([1]; gene potB (Spermidine/putrescine transport system)): 0.13
Ratio (DHCP-treated/control) ([1]; gene potC (Spermidine/putrescine transport system)): 0.20
Ratio (DHCP-treated/control) ([1]; gene potD (Spermidine/putrescine transport protein D)): 0.19
Ratio (DHCP-treated/control) ([1]; gene poxB (Pyruvate dehydrogenase)): 15.00
Ratio (DHCP-treated/control) ([1]; gene rfc (Probably O-antigen polymerase)): 0.23
Ratio (DHCP-treated/control) ([1]; gene rplA (Ribosomal protein L1)): 0.23
Ratio (DHCP-treated/control) ([1]; gene rplB (Ribosomal protein L2)): 0.25
Ratio (DHCP-treated/control) ([1]; gene rplC (Ribosomal protein L3)): 0.28
Ratio (DHCP-treated/control) ([1]; gene rplD (Ribosomal protein L4)): 0.27
Ratio (DHCP-treated/control) ([1]; gene rplE (Ribosomal protein L5)): 0.34
Ratio (DHCP-treated/control) ([1]; gene rplF (Ribosomal protein L6)): 0.30
Ratio (DHCP-treated/control) ([1]; gene rplI (Ribosomal protein L9)): 0.25
Ratio (DHCP-treated/control) ([1]; gene rplJ (Ribosomal protein L10)): 0.28
Ratio (DHCP-treated/control) ([1]; gene rplK (Ribosomal protein L11)): 0.39
Ratio (DHCP-treated/control) ([1]; gene rplM (Ribosomal protein L13)): 0.49
Ratio (DHCP-treated/control) ([1]; gene rplN (Ribosomal protein L14)): 0.44
Ratio (DHCP-treated/control) ([1]; gene rplO (Ribosomal protein L15)): 0.36
Ratio (DHCP-treated/control) ([1]; gene rplP (Ribosomal protein L16)): 0.36
Ratio (DHCP-treated/control) ([1]; gene rplQ (Ribosomal protein L17)): 0.47
Ratio (DHCP-treated/control) ([1]; gene rplR (Ribosomal protein L18)): 0.38
Ratio (DHCP-treated/control) ([1]; gene rplS (Ribosomal protein L19)): 0.35
Ratio (DHCP-treated/control) ([1]; gene rplV (Ribosomal protein L22)): 0.28
Ratio (DHCP-treated/control) ([1]; gene rplW (Ribosomal protein L23)): 0.27
Ratio (DHCP-treated/control) ([1]; gene rplX (Ribosomal protein L24)): 0.31
Ratio (DHCP-treated/control) ([1]; gene rplY (Ribosomal protein L25)): 0.28
Ratio (DHCP-treated/control) ([1]; gene rpmB (Ribosomal protein L28)): 0.45
Ratio (DHCP-treated/control) ([1]; gene rpmE (Ribosomal protein L31)): 0.39
Ratio (DHCP-treated/control) ([1]; gene rpoS (RNP polymerase sigma factor RpoS)): 4
Ratio (DHCP-treated/control) ([1]; gene sdaC (Probable serine transport protein)): 0.25
Ratio (DHCP-treated/control) ([1]; gene secF (Secretion protein SecF)): 0.26
Ratio (DHCP-treated/control) ([1]; gene secG (P12 cytoplasmic membrane protein)): 0.30
Ratio (DHCP-treated/control) ([1]; gene secY (SecY protein)): 0.40
Ratio (DHCP-treated/control) ([1]; gene tsr (Methyl-accepting chemotaxis protein1(mcp-1))): 0.22
Ratio (DHCP-treated/control) ([1]; gene tsx (Nucleoside-specific channel-forming protein)): 0.22
Ratio (DHCP-treated/control) ([1]; gene wrbA (Trp repressor binding protein)): 14.00
Ratio (DHCP-treated/control) ([1]; gene yieI (unknown function or class)): 4
Ratio (DHCP-treated/control) ([1]; gene znu (High-affinity zinc uptake system protein)): 0.13
Induction of CreBC-regulated genes ([1]; genes ackA, pta, radc, malE and trgB): not induced
Induction of genes ([1]; genes astD, tnaB and gabT): not induced
Effect on mRNA levels ([1]; genes cysG and cysS (not in Cys regulon)): not affected
Decrease of mRNA levels ([1]; genes encoding outer membrane proteins (Omp)): 5-15 times
Decrease of mRNA levels ([1]; genes motA, motB and cheA (motor action)): 4-6 times
Change of mRNA levels ([1]; genes parc and parE (topoisomerase IV subunits)): did not change
Change of mRNA levels ([1]; genes rfa, wzb or hha): did not change significantly
Reduction of mRNA levels ([1]; most of the genes encoding ribosomal L proteins): 2-3 times
Activity as AI-2 candidate in the screening assay [2]: did not show any activity
Growth of E. coli JM83 (E. coli JM83; after 3 h of incubation): severely impaired
Growth of E. coli JM83 (E. coli JM83; after 5 h): stopped growing
